Assays:
[1] = molecular target: T1, Parkin (Homo sapiens, UniProt O60260); assay: Parkin pUB auto-ubiquitinylation assay (TR-FRET); assay type: biochemical; conditions: activation of pUb activated Parkin; read-out: Auto-ubiq EC50 (μM) [Example 3]
T1 construct: Enzyme 3: Parkin-His tagged 203 μM (10.5 mg/ml)
Description: A Parkin pUB Auto-ubiquitinylation Assay is used to evaluate a compound's potency to activate Parkin's ability to Auto-ubiquitinylate itself.
The principle of this assay is that the E3 Ligase Parkin catalyzes the transfer of Ubiquitin to target proteins, but also has the ability to auto-ubiquitinylate itself. The phospho-Ubiquition (pUb) added to the assay alters the Parkin to a state where small molecule activators can enable the Parkin to auto-ubiquitinylate though the E1-E2 cascade reaction. The use of a Eu cryptate Ubiquition and anti 6His-d2 that binds to the His tagged Parkin will give a signal when the Eu cryptate Ubiquition is auto-ubiquitinylate onto the Parkin which can be monitored by TR-FRET.
Similar to the Activity-based probe assay in Example 2, screening for activating compounds can be distinguished from the controls as follows:
100% activation signal=pUb activated Parkin+40 nM control activator in DMSO. 0% activation signal=pUb activated Parkin+DMSO only. Parkin activators can be identified by an increase of the 0% activation signal TR-FRET signal.
• Assay Plate: White 384 well plate (Corning 3572) • Enzyme 1: E1 (Ubiquitin-activating enzyme/UBE1 Boston Biochem E-305) • Enzyme 2: E2 (UBcH7/Ube2L3 Boston Biochem E2-640) • Enzyme 3: Parkin-His tagged 203 μM (10.5 mg/ml) • pUb: Phospho-Ubiquitin (S65) (Boston Biochem U-102) • Eu Cryptate Reagent: Ubiquitin Eu (CisBio 61UBIKLA) • DMSO: DMSO (Sigma-34869-2.5L) • Reaction Buffer: 50 mM HEPES, 50 mM NaCl, 1 mM MgCl2, 0.005% Tween 20, 0.1% • PF-127 (Fisher Scientific 50-310-494), pH 8.5 • Detection Buffer: 50 mM HEPES, 50 mM NaCl, 800 mM KF, 5 mM EDTA, 0.005% • Tween 20, 0.1% PF-127, pH 8.5 • Detection Reagent Z: 13.4 nM Anti-6His-d2 in detection buffer • d2 Reagent: Anti-6His-d2 (CisBio 61HISDLA)
Enzyme Reaction (15 min Pre-Incubation with Parkin, pUb and Activator Only) • Parkin: 196 nM • pUb: 196 nM • DMSO: 1% DMSO • E1: 5 nM • E2: 50 nM • Ubiquitin Eu: 8.8 nM • Reaction time: 120 minutes • Temperature: 22° C. • Total volume: 10 μl reaction
Take 10 μl of Enzyme Reaction above and add 10 μl detection Reagent Z under the following conditions:
Reaction time: 60 minutes
1) Load assay plate wells with 4.9 μl 400.0 nM Parkin, 400 nM pUb in reaction buffer by use of Eppendorf 12-channel pipette. 2) Deliver 0.1 μl 100× activator candidates in DMSO by use of Echo 555 compound dispenser. Highest 100× concentration=100 μm and then twofold dilutions. Add each compound and control in duplicate wells. 3) Spin 1000 rpm, 2 minutes, at room temp. 4) Incubate plate for 15 minutes at room temp. 5) Add 5 μl 10 nM E1, 100 nM E2, 17.6 nM Ubiquitin Eu and 2 mM ATP in Reaction Buffer by use of Eppendorf 12-channel pipette. 6) Spin 1000 rpm, 2 minutes, at room temp. 7) Incubate plate for 120 minutes at room temp. 8) Add 10 μl 13.4 nM anti his d2 in detection buffer by use of Eppendorf 12-channel pipette. 9) Spin 1000 rpm, 2 minutes, at room temp. 10) Incubate plate for 120 minutes at room temp. 11) Read plates on Perkin Elmer Envision instrument with the following parameters:
(§1) LANCE dual laser protocol loaded into the Envision® software
(§2) Top Mirror: LANCE/DELFIA Duel/Bias (Bar code 446) Emission Filter: APC 665 EM (Bar code 205) 2nd Emission Filter: Europium 615 EM (Bar code 203) Read […] (channel 1) and 615 nm (channel 2) wavelengths on Envision®
(§3) Data Analysis: The Data can be read in CSV files. There are two tables in those CSV files, which are the values of 655 nm (channel 1) and 615 nm (channel 2) wavelengths respectively. The data is converted to an HTRF Ratio=(Channel 1/Channel 2)*10,000
(§4) The average of all the 0 uM controls (DMSO only)=BKGD (Background—0% activation). Subtract BKGD from each HTRF Ratio value=HTRF-BKGD. The average of all the 100 uM control activator in DMSO controls=Max (100% activation). The following equation is then used to calculate % Activation for each well/candidate as follows: % Activation=(HTRF−BKGD/Max)*100.
XLFIT5 model 205 was applied for the data analysis. […]

[2] = Metabolic stability in rat liver microsomes (RLM); assay type: in vitro ADME; conditions: 1 μM compound, 1.0 mg/mL microsome, NADPH
Experimental: Compounds were also tested for metabolic stability in both rat liver microsomes (RLM) and human liver microsomes (HLM) and their half-life calculated (See Table 6). The assay was performed as follows. The total volume for each incubation was 250 μL. A 100 μM DMSO solution of compound (diluted from 10 mM stock solution) was spiked into 50 mM KH2PO4 (pH 7.4) buffer containing liver microsome at a concentration of 1.0 mg/mL. The reaction was initiated by the addition of 50 μL of 1 mM NADPH. The final concentration of each compound was 1 μM (1% DMSO). The positive controls, phenacetin for CYP1A2, diclofenac for CYP2C9, omeprazole for CYP2C19, dextromethorphan for CYP2D6 and midazolam for CYP3A4 were added to a separate tube with the final substrate concentrations of 1 μM (1% DMSO) for evaluating the enzyme activities in the liver microsomes. At 0, 15, 30 and 60 min, an aliquot of 15 μL reaction mixtures were removed and 200 μL of methanol (with internal standard of 25 ng/mL propranolol) was added to quench the reaction. The resulting mixture was centrifuged and supernatant was used for LC-MS/MS analysis.
The signals for each compound, or the metabolites for the probe substrates and the internal standard were integrated and the peak area ratios to internal standard were generated. Percent parent remaining at a specified timepoint was calculated based on the peak area ratios at time 0 (as 100%) for in vitro metabolic stability studies in liver microsome and hepatocyte. The observed rate constant (kobs) for the metabolism of substrates was calculated by plotting the natural log of percentage substrate remaining versus time of incubation with the slope being kobs. The half-life (T1/2) was calculated according to the following equation: […]

[3] = molecular target: T2, Parkin ligase (Homo sapiens, UniProt O60260); assay: Activity-based probe assay using an ubiquitin vinyl sulfone probe (TR-FRET); assay type: biochemical; conditions: activation of heat activated Parkin, HA-Ub-VS probe; read-out: Probe Assay EC50 (μM) [Example 2]
T2 construct: Enzyme: Parkin-His tagged 203 μM (10.5 mg/ml)
T2 sequence (O60260 1-465): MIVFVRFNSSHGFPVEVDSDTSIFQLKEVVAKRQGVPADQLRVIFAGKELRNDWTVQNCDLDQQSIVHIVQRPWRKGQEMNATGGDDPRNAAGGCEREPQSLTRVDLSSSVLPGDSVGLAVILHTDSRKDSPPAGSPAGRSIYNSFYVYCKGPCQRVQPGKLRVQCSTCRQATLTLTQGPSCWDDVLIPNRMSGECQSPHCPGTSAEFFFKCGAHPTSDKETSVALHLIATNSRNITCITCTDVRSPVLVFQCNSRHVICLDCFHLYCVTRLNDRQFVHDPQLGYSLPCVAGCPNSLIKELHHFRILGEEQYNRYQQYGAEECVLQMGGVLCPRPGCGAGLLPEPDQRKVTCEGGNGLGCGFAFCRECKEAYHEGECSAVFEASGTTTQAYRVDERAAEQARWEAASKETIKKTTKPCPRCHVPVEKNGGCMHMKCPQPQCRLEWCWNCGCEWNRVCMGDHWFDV
Experimental: An Ubiquitin vinyl sulfone probe can be used that irreversibly binds to the active site cysteine of Parkin ligase. Covalent attachment of the probe to the Parkin can be monitored by TR-FRET. Candidate activator compounds can be identified by increasing the activity of Parkin ligase due to an increase in TR-FRET signal. Screening for activating compounds can be distinguished from the controls as follows:
100% activation signal=Heat activated Parkin+100 nM control activator in DMSO. 0% activation signal=Heat activated Parkin+DMSO only. Parkin activators can be identified by an increase of the 0% activation signal TR-FRET signal.
• Assay Plate: White 384 well plate (Corning 3572) • Enzyme: Parkin-His tagged 203 μM (10.5 mg/ml) • Probe: Ubiquitin vinyl-sulfone (HA-Ub-VS Boston Biochem U-212) • DMSO: DMSO (Sigma cat # D4540-100ML) • Reaction Buffer: 50 mM HEPES (pH 8.5), 150 mM NaCl, 0.01% Tween 20, 0.1% BSA • Detection Buffer: 50 mM HEPES (pH 8.5), 150 mM NaCl, 0.01% Tween 20, 0.1% BSA, 800 mM KF • Detection Reagent A: 2.6 nM Anti-6HIS-Eu cryptate and 40 nM Anti-HA-XL665 in detection buffer • Eu cryptate: Anti-6HIS-Eu cryptate (CisBio 61HISKLA) • XL665: Anti-HA-XL665 (CisBio 610HAXLA) Enzyme Reaction (15 min Pre Incubation Parkin with Activator Only) • Parkin: 40 nM • HA-Ub-VS Probe: 70 nM • Activator/DMSO: 2× Activator/2% DMSO • Reaction time: 60 minutes • Temperature: 22° C. • Total volume: 10 μl reaction
• Take 10 μl of Enzyme Reaction above and add 10 μl detection Reagent A under the following conditions: • Reaction time: 60 minutes • Temperature: 22° C. • Total volume: 20 μl
Assay procedure (Using HP D-300 compound dispenser and Bravo for the operation):
1) Heat activate Parkin in reaction buffer (500 μl/1.5 ml tube: Eppendorf Thermomixer 5 minutes, 400 rpm at 58° C. and put on ice until needed). 2) Load assay plate wells with 4.8 μl 84.5 nM Parkin in reaction buffer by use of Bravo. 3) Deliver 0.2 μl 200× activator candidates in DMSO by use of HP D-300 compound dispenser. Highest 200× concentration=20 μm and then twofold dilutions. 4) Spin 1000 rpm, 2 minutes, at room temp. 5) Incubate plate for 15 minutes at room temp. 6) Add 5 μl 140 nM HA-Ub-VS Probe in reaction buffer by use of Bravo. 7) Spin 1000 rpm, 2 minutes, at room temp. 8) Incubate plate for 60 minutes at room temp. 9) Add 10 μl 2.6 nM Anti-6HIS-Eu cryptate and 40 nM Anti-HA-XL665 in detection buffer. 10) Spin 1000 rpm, 2 minutes, at room temp. 11) Incubate plate for 60 minutes at room temp. 12) Read plates on Perkin Elmer Envision instrument with the following parameters:
as §1, §2, §3
as §4, with “[…] 100 nM control activator” for “100 uM control activator”
Graphpad Prisim was used with Transform X values: X=Log(X) and nonlinear regression (dose-response-stimulation): Log(agonist) vs Response—variable slope (four parameters) with constrains set to Bottom=0 and Top=100.

| SMILES | EC50 [1] [µM] | RLM t1/2 [2] [min] | EC50 [3] [µM] |
| --- | --- | --- | --- |
| COc1ccc(-c2cnc3c(S)cc(C)nn23)cc1 [Compound Q3] | > 40 | 6.0 | – |
| COc1ccc(-c2cnn3c(O)c4c(nc23)CN(C)CC4)cc1 [Compound R3] | – | – | > 100 |
| COc1ccc(-c2cnc3c(S)cc(C)nn23)cc1 [Compound T3] | – | 96.0 | – |
| Cc1ccc(-c2cnc3c(O)cc(C)nn23)cc1 [Compound U3] | – | – | > 100 |
| COc1ccc(-c2cnc3c(O)cc(C)nn23)cc1 [Compound V3] | – | – | > 100 |

From patent US20210163489A1, “PYRAZOLOPYRIMIDINE DERIVATIVES AND THE COMPOSITIONS AND METHODS OF TREATMENT REGARDING THE SAME” (NysnoBio Ireland DAC, priority 2016, published 2021)
